Assay results published in US20070271620A1, “Animal model for type II diabetes mellitus and Syndrome X and methods and uses thereof” (priority 2005, published 2007).
Values joined by “and” are separate entries in the source; they are usually repeats but may differ in a detail not shown here. Identical values can stand only once.

Tested on: cross-bred pigs (Yorkshire×Landrace)
Assay: Fasting and postprandial plasma lipid profiles and postprandial insulin in STZ diabetic pigs
Assay type: in vivo, pig
Method: Fasting blood samples were taken before the start of hyperinsulinemic clamp experiments and postprandial blood samples were taken two to three hours after a morning meal in the week following a clamp study.
Blood samples for determination of triglycerides and non-esterified fatty acids (NEFA) were collected in tubes containing EDTA (0.47 mol/L EDTA, 10 mL Venoject, Terumo, Leuven, Belgium) and immediately chilled at 0° C. on ice, and centrifuged at 4° C. for ten minutes at 3000 rpm. Plasma was stored, at −20° C. in four aliquots of 0.5 mL for further analyses.
Concentrations of triglycerides, cholesterol and NEFA were measured using commercially available test kits (Boehringer Mannheim, Mannheim Germany; Human, Wiesbaden, Germany; and Wako Chemicals, Neuss, Germany, respectively).

[1] = pigs, STZ 130 mg/kg, two to three hours after morning meal

CN(N=O)C(=O)N[C@H]1C(O)O[C@H](CO)[C@@H](O)[C@@H]1O (mixture of isomers) [STZ, streptozotocin]
Postprandial plasma insulin (STZ diabetic pigs, two to three hours after feeding, detection limit): ~1 mU/L | Fasting cholesterol and NEFA concentrations compared to normal pigs (pigs, STZ 130 mg/kg): did not differ | Fasting plasma NEFA (pigs, STZ 130 mg/kg): 0.9 ± 0.3 mmol/L | Fasting plasma cholesterol (pigs, STZ 130 mg/kg): 2.1 ± 0.2 mmol/L | Fasting plasma triglyceride elevation compared to normal pigs (pigs, STZ 130 mg/kg): five-fold | Fasting plasma triglycerides (pigs, STZ 130 mg/kg): 1.0 mmol/L and 1.0 ± 0.3 mmol/L | Postprandial plasma NEFA elevation compared to normal pigs (pigs, STZ 130 mg/kg): seven-fold | Postprandial plasma cholesterol elevation compared to normal pigs (pigs, STZ 130 mg/kg): 1.3 fold | Postprandial plasma triglycerides elevation compared to normal pigs (pigs, STZ 130 mg/kg): four-fold | Postprandial plasma NEFA [1]: 1.5 ± 0.5 mmol/L | Postprandial plasma cholesterol [1]: 2.3 ± 0.2 mmol/L | Postprandial plasma trigylcerides [1]: 1.2 mmol/L and 1.2 ± 0.3 mmol/L
